Patent US8178522B2, “Thiazoles” (Hoffmann-La Roche Inc., priority 2009, dated 2012)

Target: T1, GABA A α5 (α5β3γ2) (Homo sapiens, UniProt P18507+P31644)
T1 construct: expressed in transfected cells; host or cells: HEK293, transiently transfected; membrane preparation
Experiment: [3H]flumazenil competition binding, human GABA A α5 receptor
Details: human receptor α5β3γ2 transiently transfected in HEK293 cells; competition for [3H]flumazenil 0.5 nM; 1 hour at 4° C.; means of two determinations; read-out: hKi GABA A α5
Outline: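 Competition with [3H]flumazenil at membranes from HEK293 cells transiently expressing human α5β3γ2, in Krebs-tris buffer pH 7.5. Equilibrium 1 hour at 4° C, filtration with ice-cold 50 mM Tris wash, scintillation counting. Ki values are means of two determinations.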

Q: `CCNC(=O)c1sc(CCc2c(-c3ccc(F)cn3)noc2C)nc1C` [Example 38, 2-{2-[3-(5-Fluoro-pyridin-2-yl)-5-methyl-isoxazol-4-yl]-ethyl}-4-methyl-thiazole-5-carboxylic acid ethylamide] was tested. Which Ki did it give?
A: 10.8 nM
